Patent US20150218516A1, “COMPOSITIONS AND METHODS FOR ENHANCING IMMUNE RESPONSES MEDIATED BY ANTIGEN-PRESENTING CELLS” (The Board of Regents of the University of Nebraska, priority 2007, published 2015)
Entries after “also recorded” stand apart in the source; their conditions may differ. Non-standard residues stand in square brackets, D forms with d. Residues, ends and D or L forms follow the SMILES beside them. No end group written: not given here.

What was measured:
MUC1 epitope peptide = test: Serum antibody response to MUC1 epitope peptide in immunized mice (RIA); type: in vivo, C57B16 and Balb/c mice; settings: 100 μg i.p. with RIBI adjuvant, three immunizations, sera at 6 weeks
Excerpt: The strains of mice used for this example were inbred females 6 to 12 week old C57B16(H-2^b) and Balb/c (H-2^d), which were obtained from Jackson labs (Bar Harbor, Me.). […] The MUC1 peptide selected for these studies contained a motif that may bind to the H-2K^b molecule of the C57B16 mice; therefore, a strain of mouse that lacked this class I molecule binding motif (Balb/c) was also studied to determine the relative contribution of the class I binding motif to the antigen presentation properties of these peptides.
(§1) Preimmune sera were obtained from mice, which were subsequently immunized intraperitoneally with 100 μg of the indicated peptide with RIBI adjuvant (MPL+TDM+CWS) (Sigma Immunochemicals). Animals were boosted twice at two week intervals using the same injection procedure. Sera were obtained following three immunizations (at 6 weeks).
For radioimmunoassay (RIA), anti-peptide antibodies were determined, before and at different time points after immunization, in 96-well microtiter plates (Dynatech Laboratories, Inc.). Plates were coated with 50 μl of a 100 μg/ml appropriate peptide in phosphate-buffered saline (PBS) pH 7.4 solution overnight at 4° C. The wells were blocked by incubation with 5% dry milk in PBS pH 7.4 for at least two hours. Anti-peptide antibody titers were determined using serial dilutions of sera. The sera were diluted with PBS containing 0.05% Tween-20, pH 7.4 (washing buffer) and 50 μl of each dilution was incubated at 37° C. for 1 hour. The wells were then drained, washed 4 times with PBS-Tween and 50 μl of ^125I-goat anti-mouse Ab (1-2×10^4 cpm/well) was added and incubated for 1 hr at 25° C. After washing, specific radioactivity was recorded in a gamma counter (1272 CliniGamma, LKB).
Experimental groups were as follows: • Group A. mice immunized with peptide (1) • Group B. mice immunized with peptide (2) • Group C. mice immunized with peptide (1) plus peptide (2) • Group D. mice immunized with peptide (3) • Group E. mice immunized with peptide (4).

MUC1 peptide = test: MUC1 specific antibody isotype titers in immunized mice (ELISA); type: in vivo, C57BL6 mice; settings: for Ab titer IgA / Ab titer IgG1 / Ab titer IgG2a / Ab titer IgG2b / Ab titer IgG3 / Ab titer IgM: mean titer of responders, sera screened against MUC1 peptide, five mice
Procedure: as §1
Anti-peptide antibody isotype titers were determined by enzyme-linked immunosorbent assay (ELISA) carried out in 96-well microtiter plates. The plates were coated with 100 μg/ml of appropriate peptide in PBS, pH 7.4, and incubated overnight. The wells were blocked with 5% dry milk in PBS pH 7.4 for at least two hours. Anti-peptide titers were determined using serial dilutions of sera as described above. After the plates were washed 4 times, 50 μl of a 1:100 dilution of rabbit anti-mouse IgA, IgG1, IgG2a, IgG2b, IgG3 and IgM (Zymed) was added to each well and incubated at 25° C. for 1 hour. The plates were washed 4 times with washing buffer and 50 μl of 1:500 goat anti-rabbit conjugated to […] (Zymed) was incubated at 37° C. for 1 hour. Again, the plates were washed 4 times with washing buffer and bound enzyme was detected by the addition of 50 μl 1 mg/ml p-nitrophenyl phosphate (Sigma) in 10% diethanolamine (Sigma) pH 9.4. The reaction was stopped by the addition of 50 μl of 0.5 M sodium hydroxide and absorbance values (A405) were determined on Titertek Multiskan (Flow Laboratories, Irvine, Scotland).
The following experiment was performed in order to compare the potency of the molecular adjuvant of the present invention with a widely used method for enhancing the immune response to peptide epitopes. The objective was a direct comparison of the response to a construct of MUC1 epitope-C5a agonist and the same epitope conjugated to keyhole limpet hemocyanine (KLH) in mice.

human umbilical artery = test: Smooth muscle contraction of human umbilical artery; type: cell-based; settings: for EC50: concentration resulting in 50% maximum contraction; for agonist behaviour relative to natural C5a (in words): umbilical artery contraction and MPO release assays; for pD2 ± SE: −log EC50 (M), mean ± SE, n=3
Procedure: (§2) Statistical analysis of the values obtained from pharmacologic assays was performed using one-way analysis of variance (ANOVA).

[1] = test system: P815S (HBsAg transfectant) target cells; test: HBsAg-specific CTL response of immunized mice, 51Cr-release cytotoxicity assay; type: in vivo, BALB/c mice; settings: for % Specific Lysis: s.c. in PBS; for Ag-specific CTL response (in words): two or three s.c. injections at 21 day intervals, no added adjuvant
Procedure: Groups of six to eight BALB/c mice were given bilateral s.c. injections in the inguinal area with (100 al each side) of a PBS solution containing 50-100 μg of the peptides. Booster injections were given s.c. in the inguinal region at 21-day intervals. Sera for Ab analysis were obtained by retro-orbital bleeds of mice under CO2 narcosis.
Three weeks after secondary) (2° immunization and two weeks after tertiary)(3° immunization, two to three mice from each experimental group were sacrificed by cervical dislocation and their spleens removed aseptically. Pooled splenic single-cell suspensions were prepared in RPMI-1640 medium (Sigma, St. Louis, Mo.) containing 10% FBS (Hyclone, Salt Lake City, Utah) and the following supplements: 10 mM HEPES buffer, 50 μM 2-ME, 2 mM L-glutamine, 50 μg/ml gentamicin sulfate, 100 Um′ penicillin, and 50 μg/ml streptomycin (all supplements from Sigma). This supplemented complete medium is designated RP10-SC. For culture, 75×10^6 pooled spleen cells in 5 ml of RP10-SC were pipetted into a 25 cm^2 T-flask (Corning). Next, 5 ml of RP 10-SC containing 150 nM of synthetic, L^d MHC class I-restricted peptide, […] (SEQ ID NO:12) were added to the flask. The flasks were incubated undisturbed in an upright position at 37° C. in 5% CO2. After 4 days of incubation, the cells were recovered from the T-flasks, washed once by centrifugation in fresh RP10-SC, resuspended in 5 ml RP10-SC, counted, and adjusted to 5×10^6 viable cells/ml.
The specific cell target used for measuring CTL activity was P815S, a transfectant cell line of P815 (H-2^d) expressing the HBsAg (14). P815S was grown in RP10-SC medium containing 400 μg/ml geneticin disulfate (G418, Sigma). The parental H-2^d mastocytoma cell line, P815 (ATTC #TIB64) grown in RP10-SC medium, was used as a non-specific target for CTL assays to measure % non-specific lysis.
The target cells, either P815S or P815, were washed 2 times in RP10-SC. For labeling, 5×10^6 target cells were mixed with 250 μCi ^51Cr-sodium chromate[400-1200 Ci (14.8-44.4 TBq)]/[…]; NEN Dupont, Boston, Mass.) in a 1.0 ml volume in a 50 ml conical tube and incubated in a 37° C. water bath for 90 mins. After incubation, the labeled cells were washed 3 times by centrifugation using 15 ml volumes of fresh RP10-SC and allowed to stand at room temperature for 30 mins. The pelleted cells were resuspended in RP10-SC at 1×10^6 cells/ml.
The recovered splenic effector cells at 5×10^6 cells/ml were serially diluted in triplicate in wells of round-bottom 96 well plates (Corning, 25850) in a total volume of 100 al/well and using RP10-SC as the diluent. Next, 100 μl volumes of ^51Cr-labeled targets, P815S or P815, at 1×10^6 cells/ml were added to the wells. Maximum release (MR) wells contained 100 al of target cells and 100 al of 2% (v/v) Tween 20 while spontaneous release (SR) wells contained labeled cells in medium alone. Effector-to-target ratios of 50:1, 25:1, 12.5:1, and 6.25:1 were routinely employed. The plates were centrifuged at 400×g and incubated at 37° C. in 5% CO2 for 4 hrs. After incubation, the supernatant fractions in the wells were collected using a Skatron Supernatant Collection System (Skatron Instruments, Sterlin, Va.). The amount of ^51Cr radioactivity in the supernatant fractions was measured using a Wallac 1470 Wizard gamma counter (Turku, Finland).

human PMNs = test: MPO release from human PMNs; type: cell-based; settings: for EC50: 50% maximum release of myeloperoxidase; for pD2 ± SE: −log EC50 (M), mean ± SE, n=3
Procedure: as §2

[2] = Effector:Target 6.25:1, boost day 21, spleen cells day 42
[3] = Effector:Target 12.5:1, boost day 21, spleen cells day 42
[4] = Effector:Target 25:1, boost day 21, spleen cells day 42
[5] = Effector:Target 50:1, boost day 21, spleen cells day 42, restimulated 4 days with S28-39

YKQGGFLGLYSFKPMPLaR
antibody response (in words) (MUC1 epitope peptide; listed as MUC1 epitope/C5a agonist peptide conjugate): appreciable antibody response | antibody response (in words) (MUC1 epitope peptide; listed as peptide 3): substantial responses | isotypes of the anti-peptide antibodies produced (MUC1 peptide; FIG. 3): IgM, IgG2a, and IgG2b | specificity of antibody response for the MUC1 epitope (MUC1 peptide; FIG. 4): high percentage of antibodies that are specific for the MUC1 epitope | Ab titer IgA (MUC1 peptide): 0 | Ab titer IgG1 (MUC1 peptide): 0 | Ab titer IgG2a (MUC1 peptide): 1260 | Ab titer IgG2b (MUC1 peptide): 1780 | Ab titer IgG3 (MUC1 peptide): 0 | Ab titer IgM (MUC1 peptide): 6310 | number of responders IgG2a (MUC1 peptide; responders / mice immunized): (5/5) | number of responders IgG2b (MUC1 peptide; responders / mice immunized): (5/5) | number of responders IgM (MUC1 peptide; responders / mice immunized): (5/5)

CC[C@H](C)[C@H](N)C(=O)N1CCC[C@H]1C(=O)N[C@@H](CCC(N)=O)C(=O)N[C@@H](CO)C(=O)N[C@@H](CC(C)C)C(=O)N[C@@H](CC(=O)O)C(=O)N[C@@H](CO)C(=O)N[C@@H](Cc1c[nH]c2ccccc12)C(=O)N[C@@H](Cc1c[nH]c2ccccc12)C(=O)N[C@H](C(=O)N[C@@H](CO)C(=O)N[C@@H](CC(C)C)C(=O)N[C@@H](Cc1ccc(O)cc1)C(=O)N[C@@H](CO)C(=O)N[C@@H](Cc1ccccc1)C(=O)N[C@@H](CCCCN)C(=O)N1CCC[C@H]1C(=O)N[C@@H](CCSC)C(=O)N1CCC[C@H]1C(=O)N[C@@H](CC(C)C)C(=O)N[C@H](C)C(=O)N[C@@H](CCCNC(=N)N)C(=O)O)[C@@H](C)O (H-IPQSLDSWWTSLYSFKPMPL[dA]R-OH)
EC50 (human umbilical artery): 210 nM | agonist behaviour relative to natural C5a (in words) (human umbilical artery): full agonists | pD2 ± SE (human umbilical artery): 6.68 ± 0.17 | % Specific Lysis [1, 2]: 1% | % Specific Lysis [1, 3]: 2% | % Specific Lysis [1, 4]: 4% | % Specific Lysis [1, 5]: 6% | Ag-specific CTL response (in words) [1]: lack of a CTL response | EC50 (human PMNs): 1580 nM | pD2 ± SE (human PMNs): 5.80 ± 0.04

YKQGGFLGL [reference compound]
antibody response (in words) (MUC1 epitope peptide): no appreciable increase in antibody response

CC[C@H](C)[C@H](N)C(=O)N1CCC[C@H]1C(=O)N[C@@H](CCC(N)=O)C(=O)N[C@@H](CO)C(=O)N[C@@H](CC(C)C)C(=O)N[C@@H](CC(=O)O)C(=O)N[C@@H](CO)C(=O)N[C@@H](Cc1c[nH]c2ccccc12)C(=O)N[C@@H](Cc1c[nH]c2ccccc12)C(=O)N[C@H](C(=O)N[C@@H](CO)C(=O)N[C@@H](CC(C)C)C(=O)N[C@@H](CCCNC(=N)N)C(=O)N[C@H](C(=O)N[C@@H](CCCNC(=N)N)C(=O)N[C@@H](CCCNC(=N)N)C(=O)N[C@@H](Cc1ccc(O)cc1)C(=O)N[C@@H](CO)C(=O)N[C@@H](Cc1ccccc1)C(=O)N[C@@H](CCCCN)C(=O)N1CCC[C@H]1C(=O)N[C@@H](CCSC)C(=O)N1CCC[C@H]1C(=O)N[C@@H](CC(C)C)C(=O)N[C@H](C)C(=O)N[C@@H](CCCNC(=N)N)C(=O)O)C(C)C)[C@@H](C)O (H-IPQSLDSWWTSLRVRRYSFKPMPL[dA]R-OH)
EC50 (human umbilical artery): 180 nM | agonist behaviour relative to natural C5a (in words) (human umbilical artery): full agonists | pD2 ± SE (human umbilical artery): 6.67 ± 0.22 | Ag-specific CTL response (in words) [1]: specific CTL response that was significantly above background levels; also recorded: robust CTL activity | EC50 (human PMNs): 2150 nM | pD2 ± SE (human PMNs): 5.61 ± 0.19

YKQGGFLGL-KLH (YKQGGFLGL-{KLH}; also: conjugated to KLH) [reference compound]
Ab titer IgA (MUC1 peptide): 0 | Ab titer IgG1 (MUC1 peptide): 100 | Ab titer IgG2a (MUC1 peptide): 0 | Ab titer IgG2b (MUC1 peptide): 0 | Ab titer IgG3 (MUC1 peptide): 0 | Ab titer IgM (MUC1 peptide): 5010 | number of responders IgG1 (MUC1 peptide; responders / mice immunized): (2/5) | number of responders IgM (MUC1 peptide; responders / mice immunized): (4/5)

YSFKPMPLaRKQGGFLGL (YSFKPMPL[dA]RKQGGFLGL)
antibody response (in words) (MUC1 epitope peptide): immune responses were not produced

IPQSLDSWWTSLRR [reference compound]
% Specific Lysis [1, 2]: 0% | % Specific Lysis [1, 3]: 1% | % Specific Lysis [1, 4]: 2% | % Specific Lysis [1, 5]: 2%

IPQSLDSWWTSL [HBsAg L^d MHC class I-restricted peptide S28-39, reference compound]
% Specific Lysis [1, 2]: 3% | % Specific Lysis [1, 3]: 3% | % Specific Lysis [1, 4]: 5% | % Specific Lysis [1, 5]: 7%
